How the values were obtained:
Format in all cases: biochemical
[1] = target: T1, NDH-2 (type II NADH:quinone oxidoreductase) (Caldalkalibacillus thermarum, UniProt F5L3B8); test: co-crystal structure at […] Å; IC50 in NADH:menadione oxidoreduction assay ([…] menadione) with purified enzyme
T1 construct: gene CathTA2_0279

[2] = target: T2, NDH-2 (type II NADH:quinone oxidoreductase) (Caldalkalibacillus thermarum, UniProt F5L3B8, I379E); test: NADH:menadione oxidoreduction assay, […] menadione, […] NADH
T2 construct: gene CathTA2_0279

[3] = target: T1, NDH-2 (type II NADH:quinone oxidoreductase); test: NADH:menadione oxidoreduction turnover of purified enzyme ([…] s^−[…] at […] MD)

T1 sequence (F5L3B8 entry or part of it): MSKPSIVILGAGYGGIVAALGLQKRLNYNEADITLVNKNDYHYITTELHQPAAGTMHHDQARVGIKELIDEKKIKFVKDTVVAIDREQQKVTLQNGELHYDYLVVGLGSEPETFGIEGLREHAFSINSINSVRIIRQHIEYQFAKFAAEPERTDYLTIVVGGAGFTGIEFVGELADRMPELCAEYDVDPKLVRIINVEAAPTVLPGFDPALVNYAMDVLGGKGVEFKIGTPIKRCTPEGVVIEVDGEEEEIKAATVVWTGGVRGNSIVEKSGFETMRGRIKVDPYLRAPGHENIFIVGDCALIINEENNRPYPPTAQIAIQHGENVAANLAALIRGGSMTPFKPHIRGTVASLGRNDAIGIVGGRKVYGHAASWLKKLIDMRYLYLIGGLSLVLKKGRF
T2 sequence (F5L3B8 entry or part of it I379E): as the sequence (F5L3B8 entry or part of it) above

Row | Compound | IC50 [1] | IC50 [2] | NADH:menadione oxidoreduction turnover of purified enzyme (959.3 s^-1 at 400 μM) [3]
1 | CCCCCCCc1cc(O)c2ccccc2[n+]1[O-] [compound 1, 2-heptyl-4-hydroxyquinoline-N-oxide] | 7.3 ± 1.2 µM | 54.3 ± 1.2 µM | 
2 | CC1=CC(=O)c2ccccc2C1=O [menadione] |  |  | 959.3 s⁻¹

From publication PMC6167311, “Structure of the NDH-2 – HQNO inhibited complex provides molecular insight into quinone-binding site inhibitors” (Biochimica et Biophysica Acta, 2018)
